Reference: the supplement of paper PMC10307832

What was measured:
Assay in all cases: relative viability (nuclei count vs DMSO), 5 days (fraction); higher = more cells survive
[1] = compound: CS(=O)(=O)CCNCc1ccc(-c2ccc3ncnc(Nc4ccc(OCc5cccc(F)c5)c(Cl)c4)c3c2)o1 [Lapatinib] + Nc1ncn([C@H]2C[C@H](O)[C@@H](CO)O2)c(=O)n1 [Decitabine] (partner 2 µM)
In short: (§1)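 Relative viability equals treated-well nuclei counts divided by vehicle-well nuclei counts. Counts came from 4× images of lung cancer cell lines grown in 1536-well plates for 5 days after pin-tool dosing on the day after seeding. Dosing used one drug alone or a fixed anchor-drug dose plus five library-drug doses (not always all listed) in √10 steps, and values are medians of duplicate plates.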

[2] = compound: CC1=NC=CC(=C1)C2=CC=C(C=C2)CC(=O)NC3=CC=C(C=C3)C4=CN=CC=C4 [Wnt-C59] + O=C(c1cc(Cc2n[nH]c(=O)c3ccccc23)ccc1F)N1CCN(C(=O)C2CC2)CC1 [Olaparib] (partner 8 µM)
In short: as §1

[3] = compound: CC1=NC=CC(=C1)C2=CC=C(C=C2)CC(=O)NC3=CC=C(C=C3)C4=CN=CC=C4 [Wnt-C59] + CC1(C)CCC(c2ccc(Cl)cc2)=C(CN2CCN(c3ccc(C(=O)NS(=O)(=O)c4ccc(N[C@H](CCN5CCOCC5)CSc5ccccc5)c(S(=O)(=O)C(F)(F)F)c4)cc3)CC2)C1 [Navitoclax] (partner 0.5 µM)
In short: as §1

[4] = compound: CS(=O)(=O)CCNCc1ccc(-c2ccc3ncnc(Nc4ccc(OCc5cccc(F)c5)c(Cl)c4)c3c2)o1 [Lapatinib] + Nc1nc2[nH]cc(CCc3ccc(C(=O)N[C@@H](CCC(=O)O)C(=O)O)cc3)c2c(=O)[nH]1 [Pemetrexed] (partner 0.2 µM)
In short: as §1

Cell Line | relative viability ([1]; first compound 0.2 µM) | relative viability ([1]; first compound 0.6325 µM) | relative viability ([1]; first compound 2 µM) | relative viability ([2]; first compound 0.001 µM) | relative viability ([2]; first compound 0.01 µM) | relative viability ([2]; first compound 0.03162 µM) | relative viability ([2]; first compound 0.1 µM) | relative viability ([3]; first compound 0.001 µM) | relative viability ([3]; first compound 0.01 µM) | relative viability ([3]; first compound 0.03162 µM) | relative viability ([3]; first compound 0.1 µM) | relative viability ([4]; first compound 0.2 µM) | relative viability ([4]; first compound 0.6325 µM) | relative viability ([4]; first compound 2 µM) | relative viability ([1]; first compound 0.02 µM) | relative viability ([1]; first compound 0.06325 µM) | relative viability ([4]; first compound 0.02 µM) | relative viability ([4]; first compound 0.06325 µM)
NCI-H1792 | 0.555 | 0.509 | 0.388 | 0.487 | 0.48 | 0.525 | 0.385 | 0.671 | 0.669 | 0.695 | 0.701 | 0.936 | 0.75 | 0.656 | – | – | – | –
NCI-H2126 | 0.593 | 0.548 | 0.44 | 0.896 | 0.952 | 0.88 | 0.905 | 0.865 | 0.87 | 0.866 | 0.872 | 0.655 | 0.672 | 0.607 | 0.609 | 0.52 | 0.379 | 0.484
NCI-H2170 | 0.477 | 0.429 | 0.182 | 0.631 | 0.568 | 0.649 | 0.499 | 0.608 | 0.35 | 0.595 | 0.527 | 0.271 | 0.274 | 0.198 | 0.503 | 0.459 | 0.272 | 0.249
LOU-NH91 | 0.65 | 0.663 | 0.652 | 0.966 | 0.873 | 0.955 | 0.883 | 0.823 | 0.573 | 0.638 | 0.713 | 0.39 | 0.415 | 0.458 | 0.789 | 0.709 | 0.377 | 0.41
NCI-H2023 | 0.224 | 0.235 | 0.223 | 0.498 | 0.517 | 0.555 | 0.411 | 1 | 0.993 | 1.03 | 0.944 | 0.233 | 0.193 | 0.186 | 0.22 | 0.229 | – | 0.182
LC-2-ad | 0.715 | 0.834 | 0.692 | 0.725 | 0.74 | 0.716 | 0.356 | 0.478 | 0.349 | 0.614 | 0.406 | 0.264 | 0.271 | 0.232 | – | 0.807 | – | 0.29
NCI-H1355 | 0.333 | 0.307 | 0.353 | 0.726 | 0.756 | 0.717 | 0.716 | 1.01 | 0.876 | 0.905 | 0.88 | 0.948 | 1.06 | 0.889 | 0.352 | 0.33 | 0.833 | 0.93
NCI-H2347 | 0.642 | 0.605 | 0.599 | 0.554 | 0.541 | 0.615 | 0.593 | 0.897 | 0.846 | 1 | 0.748 | 0.417 | 0.436 | 0.504 | 0.573 | 0.514 | – | 0.421
NCI-H441 | 0.268 | 0.266 | 0.214 | 0.569 | 0.632 | 0.633 | 0.447 | 0.709 | 1.06 | 0.743 | 0.517 | 0.248 | 0.231 | 0.248 | 0.239 | – | 0.305 | –
NCI-H1944 | 0.431 | 0.394 | 0.414 | 0.463 | 0.396 | 0.343 | 0.388 | 1.06 | 0.96 | 1.07 | 0.964 | 0.551 | 0.523 | 0.41 | 0.421 | 0.41 | 0.619 | 0.493
201T | 0.813 | 0.827 | 0.817 | 0.845 | 0.884 | 0.841 | 0.867 | 1.21 | 1.2 | 1.19 | 1.2 | 0.298 | 0.359 | 0.326 | 0.845 | 0.812 | 0.377 | 0.288
NCI-H2087 | 0.251 | 0.228 | 0.234 | 0.608 | 0.657 | 0.688 | 0.722 | 1.03 | 0.981 | 1.01 | 0.93 | 0.599 | 0.616 | 0.513 | 0.26 | 0.164 | 0.646 | 0.636
BEN | 0.725 | 0.748 | 0.665 | 1.32 | 1.04 | 1.27 | 0.94 | 0.0424 | 0.0676 | 0.0835 | 0.0708 | 0.683 | 0.802 | 0.71 | 0.413 | 0.743 | 0.409 | 0.847
COR-L23 | 0.456 | 0.417 | 0.422 | 0.295 | 0.309 | 0.362 | 0.32 | 1.13 | 1.02 | 1.17 | 0.944 | 0.2 | 0.204 | 0.203 | 0.516 | 0.421 | 0.214 | 0.189
ChaGo-K-1 | 0.542 | 0.52 | 0.447 | 0.419 | 0.417 | 0.462 | 0.435 | 0.657 | – | 1.07 | 1.18 | 0.265 | 0.264 | 0.253 | 0.528 | 0.562 | 0.281 | 0.274
NCI-H1755 | 0.706 | 0.735 | 0.749 | 0.944 | 0.851 | 0.888 | 0.798 | 0.983 | 0.977 | 1.01 | 1.02 | 0.49 | 0.451 | 0.439 | 0.738 | 0.752 | 0.423 | 0.405
EMC-BAC-2 | – | 0.945 | 0.956 | 0.497 | 0.488 | 0.486 | 0.482 | 1.11 | 0.97 | 1.16 | 0.969 | 0.475 | 0.475 | 0.45 | – | 0.864 | – | 0.452
NCI-H1734 | 0.506 | 0.552 | 0.432 | 0.615 | 0.612 | 0.672 | 0.282 | 0.856 | 0.811 | 0.86 | 0.838 | 0.411 | 0.425 | 0.383 | – | 0.435 | – | 0.422
A-427 | 0.597 | 0.614 | 0.498 | 0.767 | 0.79 | 0.751 | 0.789 | 0.925 | 0.9 | 0.943 | 1 | 0.946 | 1.06 | 0.963 | 0.561 | 0.519 | 0.928 | 0.949
